Assay results reported in patent US9890185B2, “Urea derivatives useful as kinase inhibitors” (Respivert Limited, priority 2013, dated 2018).

Experiments:
[1] = molecular target: p38 MAPKα isoform (MAPK14) (Homo sapiens (Human), UniProt Q16539); experiment: p38 MAPKα enzyme inhibition (FRET, Z-LYTE, Method 2); type: biochemical
Method in brief: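 Z-LYTE FRET: p38 MAPKα (80 ng/mL for Method 1, 200 ng/mL for Method 2, pre-dilution) preincubated 2 hr RT with compound (4–0.004 μg/mL solutions), activity read via MAPKAP-K2 phosphorylation after 1 hr RT and 1 hr protease development. Coumarin/fluorescein ratio gives phosphorylation; % inhibition versus uninhibited control, IC50 from concentration-response curve.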

c-Src = c-Src (Homo sapiens (Human), UniProt P12931); experiment: c-Src enzyme inhibition (FRET, Z-LYTE); type: biochemical
Sequence of c-Src (P12931 whole entry, looked up): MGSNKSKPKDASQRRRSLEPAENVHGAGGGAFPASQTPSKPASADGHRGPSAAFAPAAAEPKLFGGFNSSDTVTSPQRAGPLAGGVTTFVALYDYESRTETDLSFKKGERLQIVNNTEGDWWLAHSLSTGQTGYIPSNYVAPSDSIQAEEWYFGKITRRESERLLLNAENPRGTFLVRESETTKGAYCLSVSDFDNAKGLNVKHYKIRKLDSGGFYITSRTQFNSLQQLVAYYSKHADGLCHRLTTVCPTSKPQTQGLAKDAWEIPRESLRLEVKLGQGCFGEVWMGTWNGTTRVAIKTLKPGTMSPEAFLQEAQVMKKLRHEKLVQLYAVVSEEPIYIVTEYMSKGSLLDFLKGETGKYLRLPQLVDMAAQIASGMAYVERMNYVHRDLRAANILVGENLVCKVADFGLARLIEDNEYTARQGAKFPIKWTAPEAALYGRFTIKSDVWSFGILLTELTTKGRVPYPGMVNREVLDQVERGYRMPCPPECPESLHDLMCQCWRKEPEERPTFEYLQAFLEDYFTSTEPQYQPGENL
Method in brief: (§1)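 Z-LYTE FRET read-out uses protease cleavage of unphosphorylated peptide, and the donor/acceptor ratio reflects phosphorylation. Kinase stocks (c-Src 3000, Syk 2000 ng/mL) were preincubated 2 hr RT with compound stocks of 0.004–4 μg/mL. Peptide and ATP solutions (c-Src 800 μM, Syk 60 μM) were then added for 1 hr. IC50 was taken from concentration-response.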

Syk = Syk (Homo sapiens (Human), UniProt P43405); experiment: Syk enzyme inhibition (FRET, Z-LYTE); type: biochemical
Method in brief: as §1

GSK 3α = GSK 3α (Homo sapiens (Human), UniProt P49840); experiment: GSK 3α enzyme inhibition (FRET, Z-LYTE, Method 2); type: biochemical; conditions: read-out: IC50 Values for Enzyme Inhibition, GSK3α
Sequence of GSK 3α (P49840 whole entry): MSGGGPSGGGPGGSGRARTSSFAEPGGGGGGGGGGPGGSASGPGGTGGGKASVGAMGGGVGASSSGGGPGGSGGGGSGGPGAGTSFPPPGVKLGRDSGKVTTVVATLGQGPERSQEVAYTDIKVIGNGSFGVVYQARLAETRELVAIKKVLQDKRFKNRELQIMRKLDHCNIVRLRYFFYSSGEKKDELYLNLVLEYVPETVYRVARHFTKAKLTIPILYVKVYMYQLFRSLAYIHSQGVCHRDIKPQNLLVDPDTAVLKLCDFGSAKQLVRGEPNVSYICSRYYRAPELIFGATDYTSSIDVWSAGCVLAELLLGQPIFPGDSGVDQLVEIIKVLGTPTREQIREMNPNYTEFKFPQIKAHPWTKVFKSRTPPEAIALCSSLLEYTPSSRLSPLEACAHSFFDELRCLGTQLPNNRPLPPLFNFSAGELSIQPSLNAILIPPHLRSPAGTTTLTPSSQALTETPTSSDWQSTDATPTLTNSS
Method in brief: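 Recombinant human GSK3α was preincubated with compound (stocks 4, 0.4, 0.04 or 0.004 μg/mL) at RT, 2 hr for Method 1 and 105 min for Method 2. FRET peptide (8 μM stock) and ATP (40 μM stock) were added for 1 hr, then protease development for 1 hr. IC50 was taken from concentration–response curves.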

PBMCs [2] = experiment: IL-2 release in CD3/CD28 stimulated PBMC cells (assay c); type: cell-based; conditions: Homo sapiens, read-out: IC50 Values for Inhibition of Cytokine Release, PBMCs IL-2
Method in brief: (§2)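 Healthy-donor PBMCs (density-gradient isolated) stimulated on plates pre-coated with anti-CD3 (0.3 μg/mL) and anti-CD28 (3 μg/mL), with compound, for 3 days under normal culture conditions. IL-2 and IFN gamma in supernatants measured by sandwich ELISA; IC50 from dose-response curve.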

PBMCs [3] = experiment: IFN gamma release in CD3/CD28 stimulated PBMC cells (assay c); type: cell-based; conditions: Homo sapiens, read-out: IC50 Values for Inhibition of Cytokine Release, PBMCs IFNγ
Method in brief: as §2

d-U937 cells = experiment: Accumulation of β catenin in d-U937 cells (assay m); type: cell-based, human; conditions: percentage relative to Reference Compound at 1 μg/mL
Method in brief: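 Read-out: colourimetric cell-based immunoassay for endogenous β-catenin (OD450 minus 655 reference), normalised to crystal violet absorbance at 595 nm. Test compound or vehicle was applied for 18 hr to U937 monocytes first differentiated with PMA (100 ng/mL) for 48–72 hr.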

Sequence of p38 MAPKα isoform (MAPK14) (Q16539 whole entry, canonical isoform): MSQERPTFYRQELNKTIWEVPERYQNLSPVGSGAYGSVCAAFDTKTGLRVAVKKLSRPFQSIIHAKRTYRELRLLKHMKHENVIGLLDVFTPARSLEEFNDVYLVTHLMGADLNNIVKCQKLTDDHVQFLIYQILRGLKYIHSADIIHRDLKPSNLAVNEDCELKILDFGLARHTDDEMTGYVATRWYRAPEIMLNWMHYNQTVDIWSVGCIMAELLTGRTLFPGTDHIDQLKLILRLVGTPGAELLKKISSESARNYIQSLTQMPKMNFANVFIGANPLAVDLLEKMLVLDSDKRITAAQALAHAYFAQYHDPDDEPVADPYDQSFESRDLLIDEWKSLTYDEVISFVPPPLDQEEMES

SMILES | IC50 [1] | IC50 (c-Src) | IC50 (Syk) | IC50 (GSK 3α) | IC50 (PBMCs [2]) | IC50 (PBMCs [3]) | % β-catenin induction (d-U937 cells; test compound 1 μg/mL) | % β-catenin induction (d-U937 cells; test compound 5 μg/mL) | % β-catenin induction (d-U937 cells; test compound 10 μg/mL)
COc1cccc(Nc2cc(Oc3ccc(NC(=O)Nc4cc(C(C)(C)C)cc(CNC(C)=O)c4OC)c4ccccc34)ccn2)c1 [Example 43, N-(5-(tert-Butyl)-2-methoxy-3-(3-(4-((2-((3-methoxyphenyl)amino)pyridin-4-yl)oxy)naphthalen-1-yl)ureido)benzyl)acetamide] | 129 nM | 54 nM | 132 nM | 7700 nM | 30.4 nM | 2.8 nM | 7.5% | 19.5% | 20.5%
COc1cc(Nc2cc(Oc3ccc(NC(=O)Nc4cc(C(C)(C)C)cc(CNC(C)=O)c4OC)c4ccccc34)ccn2)cc(OC)c1 [Example 44, N-(5-(tert-Butyl)-3-(3-(4-((2-((3,5-dimethoxyphenyl)amino)pyridin-4-yl)oxy)naphthalen-1-yl)ureido)-2-methoxybenzyl)acetamide] | 175 nM | 67 nM | 95 nM | > 15100 nM | 28.3 nM | 2.3 nM | 5.0% | 8.0% | 11.0%
